Results on one compound are retold here after publication PMC4673153, “Discovery of benzo[e]pyridoindolones as kinase inhibitors that disrupt mitosis exit while erasing AMPK-Thr172 phosphorylation on the spindle” (Oncotarget, 2015).

In general, IC50 refers to the concentration that gives 50% inhibition.

Counter-ions that a name gives are not always drawn.

Assay type in all cases: biochemical
Test [1] concerns the target T1, aurora B kinase (Homo sapiens, UniProt Q96GD4).
T1 construct: gene AURKB
Nature of the test: in vitro kinase assay, recombinant enzyme (MRC Dundee).

The target of test [2] is T2, Chk1 (Homo sapiens, UniProt O14757).
T2 construct: gene CHEK1
T2 sequence (O14757 1-476): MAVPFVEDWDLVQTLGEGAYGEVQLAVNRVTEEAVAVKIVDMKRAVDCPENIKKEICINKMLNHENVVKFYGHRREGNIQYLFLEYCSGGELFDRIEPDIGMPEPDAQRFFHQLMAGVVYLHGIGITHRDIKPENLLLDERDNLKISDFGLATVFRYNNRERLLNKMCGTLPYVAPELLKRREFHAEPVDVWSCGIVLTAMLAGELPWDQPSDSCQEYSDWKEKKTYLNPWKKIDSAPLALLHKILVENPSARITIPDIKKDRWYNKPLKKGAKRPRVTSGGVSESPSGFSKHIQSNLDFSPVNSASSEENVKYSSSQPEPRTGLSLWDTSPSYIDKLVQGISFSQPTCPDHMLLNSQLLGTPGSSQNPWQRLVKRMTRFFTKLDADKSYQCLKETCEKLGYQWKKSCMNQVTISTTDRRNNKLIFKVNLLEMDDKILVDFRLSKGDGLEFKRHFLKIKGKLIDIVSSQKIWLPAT
Described as above.

In test [3] the target is T3, Tak1 (Homo sapiens, UniProt O43318).
T3 construct: gene MAP3K7
T3 sequence (O43318 1-606): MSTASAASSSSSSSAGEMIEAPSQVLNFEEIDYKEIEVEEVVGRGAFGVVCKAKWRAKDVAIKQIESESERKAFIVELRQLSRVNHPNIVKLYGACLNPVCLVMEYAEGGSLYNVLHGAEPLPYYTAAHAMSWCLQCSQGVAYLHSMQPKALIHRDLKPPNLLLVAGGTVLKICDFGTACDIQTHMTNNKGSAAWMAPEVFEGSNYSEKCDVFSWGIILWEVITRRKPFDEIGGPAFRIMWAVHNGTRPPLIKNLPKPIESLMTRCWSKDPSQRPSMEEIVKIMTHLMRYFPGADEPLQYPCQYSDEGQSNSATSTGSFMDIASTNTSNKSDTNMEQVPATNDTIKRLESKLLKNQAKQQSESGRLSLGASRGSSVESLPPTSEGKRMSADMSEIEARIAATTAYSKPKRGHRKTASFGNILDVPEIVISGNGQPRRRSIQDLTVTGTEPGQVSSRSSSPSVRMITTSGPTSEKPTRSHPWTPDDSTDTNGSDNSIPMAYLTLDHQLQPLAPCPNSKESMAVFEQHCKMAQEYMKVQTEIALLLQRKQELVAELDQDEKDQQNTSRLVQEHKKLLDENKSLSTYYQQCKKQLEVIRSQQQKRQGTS
T3 sequence (Q15750 1-504 partner): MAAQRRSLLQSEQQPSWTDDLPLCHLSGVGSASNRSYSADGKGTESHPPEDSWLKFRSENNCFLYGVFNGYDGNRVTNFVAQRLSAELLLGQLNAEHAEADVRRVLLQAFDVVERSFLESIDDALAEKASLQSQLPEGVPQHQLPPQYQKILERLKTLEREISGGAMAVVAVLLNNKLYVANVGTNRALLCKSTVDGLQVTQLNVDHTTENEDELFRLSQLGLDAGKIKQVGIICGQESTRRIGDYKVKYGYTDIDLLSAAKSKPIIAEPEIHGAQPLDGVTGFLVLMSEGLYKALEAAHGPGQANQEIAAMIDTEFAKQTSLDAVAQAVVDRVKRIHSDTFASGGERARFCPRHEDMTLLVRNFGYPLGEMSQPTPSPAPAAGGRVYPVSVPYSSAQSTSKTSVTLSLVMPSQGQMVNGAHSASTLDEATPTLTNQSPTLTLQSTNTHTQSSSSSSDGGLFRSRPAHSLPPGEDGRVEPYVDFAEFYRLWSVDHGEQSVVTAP
The description is as above.

Test [4] deals with phosphorylase kinase. The test is described as above.
Test [5] addresses T4, CaMKKβ (Homo sapiens, UniProt Q96RR4).
T4 construct: gene CAMKK2
As to the kind of experiment: kinase panel profiling at […], recombinant enzyme (MRC Dundee).

Test [6] has as its target Melk (Homo sapiens, UniProt Q14680). Nature of the test: in vitro kinase assay, recombinant enzyme (MRC Dundee).
The target in test [7] is T5, ARK5/Nuak1 (Homo sapiens, UniProt O60285).
T5 sequence (O60285 1-661): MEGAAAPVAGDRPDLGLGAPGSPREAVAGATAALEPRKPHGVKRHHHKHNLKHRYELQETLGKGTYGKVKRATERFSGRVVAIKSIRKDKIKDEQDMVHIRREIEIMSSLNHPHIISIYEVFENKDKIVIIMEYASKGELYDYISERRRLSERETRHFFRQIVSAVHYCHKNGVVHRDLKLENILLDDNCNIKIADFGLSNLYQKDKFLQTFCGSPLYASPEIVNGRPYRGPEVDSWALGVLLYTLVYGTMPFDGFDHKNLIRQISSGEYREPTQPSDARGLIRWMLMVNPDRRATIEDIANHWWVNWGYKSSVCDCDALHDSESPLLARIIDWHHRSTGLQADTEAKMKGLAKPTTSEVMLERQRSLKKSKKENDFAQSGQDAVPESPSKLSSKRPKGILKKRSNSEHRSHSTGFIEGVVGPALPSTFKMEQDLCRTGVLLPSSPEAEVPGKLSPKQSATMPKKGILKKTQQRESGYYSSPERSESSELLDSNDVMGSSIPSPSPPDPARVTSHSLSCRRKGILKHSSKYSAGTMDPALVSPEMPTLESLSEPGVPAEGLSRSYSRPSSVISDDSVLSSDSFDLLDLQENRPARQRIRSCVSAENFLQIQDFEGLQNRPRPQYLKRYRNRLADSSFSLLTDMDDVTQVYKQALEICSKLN
The test is described as above.

The target in test [8] is T6, Chk2 (Homo sapiens, UniProt O96017).
T6 construct: gene CHEK2
T6 sequence (O96017 whole entry): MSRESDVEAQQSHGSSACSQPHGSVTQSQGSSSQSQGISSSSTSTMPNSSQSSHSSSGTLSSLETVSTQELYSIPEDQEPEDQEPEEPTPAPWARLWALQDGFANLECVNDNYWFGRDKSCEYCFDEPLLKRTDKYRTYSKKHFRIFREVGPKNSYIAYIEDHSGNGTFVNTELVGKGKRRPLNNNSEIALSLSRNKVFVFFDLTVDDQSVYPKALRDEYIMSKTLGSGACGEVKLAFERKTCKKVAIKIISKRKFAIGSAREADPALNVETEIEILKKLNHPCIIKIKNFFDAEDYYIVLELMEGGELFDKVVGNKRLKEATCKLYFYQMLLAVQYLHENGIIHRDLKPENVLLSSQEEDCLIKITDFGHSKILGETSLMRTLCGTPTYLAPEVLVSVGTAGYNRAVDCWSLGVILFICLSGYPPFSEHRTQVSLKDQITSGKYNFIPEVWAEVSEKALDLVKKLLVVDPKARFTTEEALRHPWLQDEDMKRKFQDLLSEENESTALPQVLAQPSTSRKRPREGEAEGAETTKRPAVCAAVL
The test is described as above.

For test [9], the target named is T7, Flt1/V-EGFR1 (Homo sapiens, UniProt P17948).
T7 sequence (P17948 781-1338 limits assumed): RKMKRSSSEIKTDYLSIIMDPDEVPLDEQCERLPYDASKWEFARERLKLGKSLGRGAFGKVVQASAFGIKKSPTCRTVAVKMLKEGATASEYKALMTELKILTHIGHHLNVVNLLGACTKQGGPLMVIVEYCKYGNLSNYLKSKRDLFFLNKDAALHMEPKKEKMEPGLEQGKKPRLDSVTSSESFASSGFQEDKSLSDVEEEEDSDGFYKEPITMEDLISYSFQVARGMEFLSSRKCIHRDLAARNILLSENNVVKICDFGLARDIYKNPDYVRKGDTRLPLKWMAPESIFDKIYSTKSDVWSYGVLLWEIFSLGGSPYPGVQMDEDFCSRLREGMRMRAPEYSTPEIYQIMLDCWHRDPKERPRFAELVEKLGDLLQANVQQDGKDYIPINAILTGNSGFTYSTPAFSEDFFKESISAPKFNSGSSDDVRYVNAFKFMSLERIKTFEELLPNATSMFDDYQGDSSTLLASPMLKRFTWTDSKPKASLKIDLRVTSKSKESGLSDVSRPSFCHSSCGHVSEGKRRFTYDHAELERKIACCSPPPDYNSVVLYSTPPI
The test is described as above.

In test [10] the target is Sik2 (Homo sapiens, UniProt Q9H0K1). The description is as above.
Sik2, sequence (Q9H0K1 whole entry): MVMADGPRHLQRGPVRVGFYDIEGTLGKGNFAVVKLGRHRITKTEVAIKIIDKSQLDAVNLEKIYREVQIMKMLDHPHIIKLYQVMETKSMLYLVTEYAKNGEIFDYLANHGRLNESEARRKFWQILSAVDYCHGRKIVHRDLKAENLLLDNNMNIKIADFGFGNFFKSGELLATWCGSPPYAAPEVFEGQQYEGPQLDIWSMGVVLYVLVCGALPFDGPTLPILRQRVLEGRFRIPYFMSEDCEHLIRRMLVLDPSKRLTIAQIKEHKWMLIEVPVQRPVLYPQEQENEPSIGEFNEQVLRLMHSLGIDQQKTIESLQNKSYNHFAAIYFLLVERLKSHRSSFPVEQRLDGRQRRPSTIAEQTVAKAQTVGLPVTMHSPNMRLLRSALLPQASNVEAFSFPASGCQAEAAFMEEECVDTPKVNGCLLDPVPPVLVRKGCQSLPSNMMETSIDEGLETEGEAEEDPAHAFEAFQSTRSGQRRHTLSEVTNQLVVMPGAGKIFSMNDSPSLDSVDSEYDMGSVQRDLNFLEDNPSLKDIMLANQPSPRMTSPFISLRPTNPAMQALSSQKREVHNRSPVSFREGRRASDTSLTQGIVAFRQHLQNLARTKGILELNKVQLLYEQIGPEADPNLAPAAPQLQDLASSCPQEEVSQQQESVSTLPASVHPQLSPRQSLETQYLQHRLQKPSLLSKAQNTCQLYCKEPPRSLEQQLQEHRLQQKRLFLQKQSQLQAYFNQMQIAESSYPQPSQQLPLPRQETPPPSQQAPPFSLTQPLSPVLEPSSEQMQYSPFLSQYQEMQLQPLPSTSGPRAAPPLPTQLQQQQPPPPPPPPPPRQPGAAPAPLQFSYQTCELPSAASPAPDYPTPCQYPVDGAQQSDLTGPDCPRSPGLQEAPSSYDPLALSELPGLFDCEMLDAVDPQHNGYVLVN

T4 sequence (Q96RR4 2-588): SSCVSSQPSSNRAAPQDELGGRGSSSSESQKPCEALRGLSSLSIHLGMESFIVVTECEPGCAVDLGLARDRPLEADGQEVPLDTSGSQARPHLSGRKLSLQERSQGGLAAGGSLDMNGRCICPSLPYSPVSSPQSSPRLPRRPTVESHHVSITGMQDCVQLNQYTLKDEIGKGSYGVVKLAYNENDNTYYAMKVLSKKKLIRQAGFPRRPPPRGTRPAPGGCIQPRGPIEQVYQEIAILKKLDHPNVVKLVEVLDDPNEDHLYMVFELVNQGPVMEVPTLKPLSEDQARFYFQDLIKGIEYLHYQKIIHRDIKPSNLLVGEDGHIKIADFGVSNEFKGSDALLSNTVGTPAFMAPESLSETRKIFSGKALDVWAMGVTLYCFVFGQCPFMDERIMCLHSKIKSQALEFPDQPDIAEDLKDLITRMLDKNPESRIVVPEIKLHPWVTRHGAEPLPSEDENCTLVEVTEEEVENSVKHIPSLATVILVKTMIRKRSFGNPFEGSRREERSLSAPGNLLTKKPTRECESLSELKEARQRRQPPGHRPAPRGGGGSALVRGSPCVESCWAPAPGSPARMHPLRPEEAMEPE
T1 sequence (Q96GD4 whole entry): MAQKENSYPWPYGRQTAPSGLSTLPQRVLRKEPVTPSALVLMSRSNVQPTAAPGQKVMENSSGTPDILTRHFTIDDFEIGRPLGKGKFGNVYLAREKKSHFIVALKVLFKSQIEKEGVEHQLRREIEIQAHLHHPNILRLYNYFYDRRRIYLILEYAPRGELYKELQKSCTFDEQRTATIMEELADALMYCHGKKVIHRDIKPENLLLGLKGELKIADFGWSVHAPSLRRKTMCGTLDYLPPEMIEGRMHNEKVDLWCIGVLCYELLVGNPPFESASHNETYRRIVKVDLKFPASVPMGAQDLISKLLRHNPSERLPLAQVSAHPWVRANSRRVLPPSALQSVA
Melk, sequence (Q14680 whole entry): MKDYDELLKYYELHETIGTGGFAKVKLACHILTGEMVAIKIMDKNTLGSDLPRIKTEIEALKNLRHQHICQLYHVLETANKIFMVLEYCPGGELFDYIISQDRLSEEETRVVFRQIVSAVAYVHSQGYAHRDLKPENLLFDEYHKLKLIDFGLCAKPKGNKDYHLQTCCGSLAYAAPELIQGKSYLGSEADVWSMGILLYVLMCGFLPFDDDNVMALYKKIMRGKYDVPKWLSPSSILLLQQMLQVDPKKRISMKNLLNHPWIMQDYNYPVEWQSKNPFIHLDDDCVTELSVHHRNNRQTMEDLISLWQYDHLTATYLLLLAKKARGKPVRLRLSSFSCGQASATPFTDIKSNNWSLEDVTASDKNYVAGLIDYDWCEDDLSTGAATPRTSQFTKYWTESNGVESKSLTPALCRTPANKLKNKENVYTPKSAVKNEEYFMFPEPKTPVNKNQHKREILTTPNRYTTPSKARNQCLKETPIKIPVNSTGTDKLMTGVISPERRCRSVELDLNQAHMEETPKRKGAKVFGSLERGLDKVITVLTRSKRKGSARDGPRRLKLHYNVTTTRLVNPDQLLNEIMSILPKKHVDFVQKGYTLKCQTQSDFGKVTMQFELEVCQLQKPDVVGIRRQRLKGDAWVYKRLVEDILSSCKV

On to `Cc1c[nH]c(=O)c2c1[nH]c1ccc3cc(OCCN4CCCCC4)ccc3c12` [C5M, 3-(2-(Piperidin-1-yl)ethoxy)-8-methyl-7H, 10H-benzo[e]pyrido(4,3-b)indol-11-one maleate], for which the half-maximal inhibitory concentration (IC50) was found to be 118 nM in [1]; 13.6 nM in test [2]; 6 nM in test [3]; 18.5 nM in test [4]; 13.3 nM in test [6]; 4.8 nM in test [7]. Also, the IC50 in test [8] stood at 13.6 nM; in [9], 37 nM; in test [10], 12.4 nM. In addition, the “kinase panel profiling at 250 nM, recombinant enzyme (MRC Dundee)” value in test [5] is on record as “Among the fifteen best targets, we noted the presence of several AMPK-related kinases”.
